In BindingDB's records for doi:10.1016/s0960-894x(98)00175-9 (Dupont Pharmaceuticals, 1998):

molecular target: T1, Dimer of Gag-Pol polyprotein [489-587] (Human immunodeficiency virus 1, UniProt P12497); experiment: Protease Inhibition Assay; settings: pH 5.5; 37 °C
T1 construct: 489-587
Method: Inhibition of HIV protease was measured by assay of the cleavage of a fluorescent peptide substrate. The fluorescent product (2-aminobenzoyl-Ala-Thr-His-Gln-Val-Tyr) was separated from the fluorescent substrate by anion-exchange HPLC on a Mono-Q anion-exchange column (Pharmacia), and fluorescence was monitored at an excitation wavelength of 330 nm and an emission wavelength of 430 nm. Ki values for inhibitor binding were estimated at fixed concentrations of substrate and inhibitor from fractional activity measurements by use of the modified Michaelis-Menten equation.

**Q.** Which Ki does the source give for `O=C(Nc1nc2ccccc2[nH]1)c1cccc(CN2C(=O)N(Cc3cccc(C(=O)Nc4nc5ccccc5[nH]4)c3)[C@H](Cc3ccccc3)[C@H](O)[C@@H](O)[C@H]2Cc2ccccc2)c1` [N-(1H-1,3-benzodiazol-2-yl)-3-{[(4R,5S,6S,7R)-3-{[3-(1H-1,3-benzodiazol-2-ylcarbamoyl)phenyl]methyl}-4,7-dibenzyl-5,6-dihydroxy-2-oxo-1,3-diazepan-1-yl]methyl}benzamide] here?
**A.** The Ki was 0.024 nM.

**Q.** Which Ki does the source give for `O=C1N(CC2CC2)[C@H](Cc2cccs2)[C@H](O)[C@@H](O)[C@@H](Cc2cccs2)N1CC1CC1` [(4R,5S,6S,7R)-Hexahydro-5,6-dihydroxy-1,3-bis-(cyclopropylmethyl)-4,7-bis(2-thienylmethyl)-2H-1,3-diazapin-2-one] here?
**A.** Its Ki is 9.1 nM.

**Q.** With `O=C1N(Cc2ccc(CO)cc2)[C@H](Cc2ccncc2)[C@H](O)[C@@H](O)[C@@H](Cc2ccncc2)N1Cc1ccc(CO)cc1` [(4R,5S,6S,7R)-5,6-dihydroxy-1,3-bis({[4-(hydroxymethyl)phenyl]methyl})-4,7-bis(pyridin-4-ylmethyl)-1,3-diazepan-2-one] as the compound, how does the Ki read?
**A.** The Ki was 4.8 nM.

**Q.** Which Ki does the source give for `O=C1N(Cc2ccc(CO)cc2)[C@H](Cc2ccc(F)c(F)c2)[C@H](O)[C@@H](O)[C@@H](Cc2ccc(F)c(F)c2)N1Cc1ccc(CO)cc1` [(4R,5S,6S,7R)-4,7-bis[(3,4-difluorophenyl)methyl]-5,6-dihydroxy-1,3-bis({[4-(hydroxymethyl)phenyl]methyl})-1,3-diazepan-2-one] here?
**A.** Its Ki is 0.47 nM.

**Q.** For `O=C1N(Cc2ccc(CO)cc2)[C@H](Cc2ccc(F)cc2)[C@H](O)[C@@H](O)[C@@H](Cc2ccc(F)cc2)N1Cc1ccc(CO)cc1` [(4R,5S,6S,7R)-Hexahydro-5,6-dihydroxy-1,3-bis-[[4-(hydroxymethyl)phenyl]methyl]-4,7-bis[(4-fluorophenyl)methyl]-2H-1,3-diazapin-2-one], which Ki is on record?
**A.** The Ki was 0.44 nM.

**Q.** With `O=C1N(Cc2ccc(CO)cc2)[C@H](CC2CCCCC2)[C@H](O)[C@@H](O)[C@@H](CC2CCCCC2)N1Cc1ccc(CO)cc1` [(4R,5S,6S,7R)-4,7-bis(cyclohexylmethyl)-5,6-dihydroxy-1,3-bis({[4-(hydroxymethyl)phenyl]methyl})-1,3-diazepan-2-one] as the compound, how does the Ki read?
**A.** The Ki was 32 nM.

**Q.** Which Ki does the source give for `CSCC[C@@H]1[C@H](O)[C@@H](O)[C@@H](CCSC)N(Cc2ccc(CO)cc2)C(=O)N1Cc1ccc(CO)cc1` [(4R,5S,6S,7R)-Hexahydro-5,6-dihydroxy-1,3-bis-[[4-(hydroxymethyl)phenyl]methyl]-4,7-bis[2-(methylthio)ethyl]-2H-1,3-diazapin-2-one] here?
**A.** Its Ki is 3900 nM.

**Q.** For `COc1cccc(C[C@@H]2[C@H](O)[C@@H](O)[C@@H](Cc3cccc(OC)c3)N(Cc3ccc(CO)cc3)C(=O)N2Cc2ccc(CO)cc2)c1` [(4R,5S,6S,7R)-5,6-dihydroxy-1,3-bis({[4-(hydroxymethyl)phenyl]methyl})-4,7-bis[(3-methoxyphenyl)methyl]-1,3-diazepan-2-one], which Ki is on record?
**A.** The Ki was 0.11 nM.

**Q.** With `CC(C)C[C@@H]1[C@H](O)[C@@H](O)[C@@H](CC(C)C)N(Cc2ccc(CO)cc2)C(=O)N1Cc1ccc(CO)cc1` [(4R,5S,6S,7R)-5,6-dihydroxy-1,3-bis({[4-(hydroxymethyl)phenyl]methyl})-4,7-bis(2-methylpropyl)-1,3-diazepan-2-one] as the compound, how does the Ki read?
**A.** Its Ki is 38 nM.

**Q.** For `COc1ccc(C[C@@H]2[C@H](O)[C@@H](O)[C@@H](Cc3ccc(OC)cc3)N(Cc3ccc(CO)cc3)C(=O)N2Cc2ccc(CO)cc2)cc1` [(4R,5S,6S,7R)-Hexahydro-5,6-dihydroxy-1,3-bis-[[4-(hydroxymethyl)phenyl]methyl]-4,7-bis[(4-methoxyphenyl)methyl]-2H-1,3-diazapin-2-one], which Ki is on record?
**A.** The Ki was 0.24 nM.
